Experimental data taken from US20100004267A1, “LIQUID PREPARATION” (ASUBIO PHARMA CO., LTD., priority 2006, published 2010).

Assay: Reduction in surface activity in SUN N8075 aqueous solution (Test example 7)
Format: physicochemical
Set-up: key to Appearance after shaking / Appearance after standing: A: Clear; B+: Almost clear; B: Much less insoluble matters than Control; Clearly less insoluble matter than Control; D: Comparable amount of insoluble matters with Control; E: More insoluble matters than Control; key to General judgment: A: Great effect; B+: Large effect; B: Effective; C: Effective but very small; D: Comparable to Control (No effect); E: Inferior to Control (clouded); key to Foaming property: A: Much less foaming than Control; B: Clearly less foaming than Control; Slightly less foaming than Control; D: Comparable to Control; E: More foaming than Control
Procedure: Into each test compound solution which was prepared in advance to achieve each adding concentration shown in the Table, SUN N8075 was added and dissolved so that the concentration thereof was 5 mg/mL, and the pH value was adjusted to 3 to 4 as appropriate by hydrochloric acid to prepare a sample solution.
Each 10 mL of sample solution was put into a 10-mL stoppered test tube, and shaken 30 strokes vertically by hand and allowed to stand upright, and under room diffused light, appearance of sample solution after shaking, foaming property (foaming quantity), defoaming time, post standing observation (after standing for 3 days or more) were evaluated.
As a control, an aqueous solution containing no test substance but containing 5 mg/mL of SUN N8075 was examined in a similar manner.

[1] = Control: 5 mg/mL SUN N8075 aqueous solution, no test substance

Appearance after shaking (Captisol 10.00%): A | Appearance after standing (Captisol 10.00%): A | Defoaming time (Captisol 10.00%): A (In 20 minutes) | Foaming property (Captisol 10.00%): A | General judgment (Captisol 10.00%): A | Appearance after shaking (Chlorobutanol 0.10%): D | Appearance after standing (Chlorobutanol 0.10%): D | Foaming property (Chlorobutanol 0.10%): C | General judgment (Chlorobutanol 0.10%): D | Appearance after shaking (Chlorobutanol 0.50%): B | Appearance after standing (Chlorobutanol 0.50%): A | Foaming property (Chlorobutanol 0.50%): B | General judgment (Chlorobutanol 0.50%): B+ | Appearance after shaking (Chlorobutanol […]): C | Appearance after standing (Chlorobutanol […]): A | Foaming property (Chlorobutanol […]): C | General judgment (Chlorobutanol […]): B | Foaming property [1]: Very high foaming property in Control | Appearance after shaking (Ethanol 1.00%): B | Appearance after standing (Ethanol 1.00%): B | Foaming property (Ethanol 1.00%): C | General judgment (Ethanol 1.00%): B | Appearance after shaking (Ethanol 5.00%): D | Appearance after standing (Ethanol 5.00%): E | Foaming property (Ethanol 5.00%): D | General judgment (Ethanol 5.00%): D | Appearance after shaking (Ethanol 10.00%): D | Appearance after standing (Ethanol 10.00%): E | Foaming property (Ethanol 10.00%): D | General judgment (Ethanol 10.00%): D | Appearance after shaking (Ethanol […]): B | Appearance after standing (Ethanol […]): C | Foaming property (Ethanol […]): D | General judgment (Ethanol […]): C | Appearance after shaking (Glycine 100 mM): B | Appearance after standing (Glycine 100 mM): B | Foaming property (Glycine 100 mM): B | General judgment (Glycine 100 mM): B | Appearance after shaking (L-Arginine 30 mM): B+ | Appearance after standing (L-Arginine 30 mM): B+ | Defoaming time (L-Arginine 30 mM): B (In 60 minutes) | Foaming property (L-Arginine 30 mM): B | General judgment (L-Arginine 30 mM): B+ | Appearance after shaking (L-Arginine 60 mM): A | Appearance after standing (L-Arginine 60 mM): A | Defoaming time (L-Arginine 60 mM): A (In 20 minutes) | Foaming property (L-Arginine 60 mM): A | General judgment (L-Arginine 60 mM): A | Appearance after shaking (L-Histidine 60 mM): A | Appearance after standing (L-Histidine 60 mM): A | Defoaming time (L-Histidine 60 mM): A (In 20 minutes) | Foaming property (L-Histidine 60 mM): A | General judgment (L-Histidine 60 mM): A | Appearance after shaking (Meglumine 25 mM): C | Appearance after standing (Meglumine 25 mM): C | Foaming property (Meglumine 25 mM): D | General judgment (Meglumine 25 mM): C | Appearance after shaking (Meglumine 50 mM): A | Appearance after standing (Meglumine 50 mM): A | Defoaming time (Meglumine 50 mM): B (In 60 minutes) | Foaming property (Meglumine 50 mM): C | General judgment (Meglumine 50 mM): B | Appearance after shaking (Meglumine 75 mM): A | Appearance after standing (Meglumine 75 mM): A | Defoaming time (Meglumine 75 mM): B (In 60 minutes) | Foaming property (Meglumine 75 mM): B | General judgment (Meglumine 75 mM): A | Appearance after shaking (Meglumine 100 mM): A | Appearance after standing (Meglumine 100 mM): A | Defoaming time (Meglumine 100 mM): A (In 20 minutes) | Foaming property (Meglumine 100 mM): C | General judgment (Meglumine 100 mM): A | Appearance after shaking (Methane sulfonic acid 15 mM): D | Appearance after standing (Methane sulfonic acid 15 mM): D | Foaming property (Methane sulfonic acid 15 mM): B | General judgment (Methane sulfonic acid 15 mM): D | Appearance after shaking (Propylene glycol 1.00%): B | Appearance after standing (Propylene glycol 1.00%): A | Foaming property (Propylene glycol 1.00%): B | General judgment (Propylene glycol 1.00%): B+ | Appearance after shaking (Propylene glycol 5.00%): B | Appearance after standing (Propylene glycol 5.00%): D | Foaming property (Propylene glycol 5.00%): D | General judgment (Propylene glycol 5.00%): D | Appearance after shaking (Propylene glycol 10.00%): C | Appearance after standing (Propylene glycol 10.00%): D | Foaming property (Propylene glycol 10.00%): D | General judgment (Propylene glycol 10.00%): D | Appearance after shaking (Propylene glycol […]): C | Appearance after standing (Propylene glycol […]): D | Foaming property (Propylene glycol […]): D | General judgment (Propylene glycol […]): D | Appearance after shaking (Sodium L-glutamate 30 mM): B+ | Appearance after standing (Sodium L-glutamate 30 mM): B+ | Foaming property (Sodium L-glutamate 30 mM): B+ | General judgment (Sodium L-glutamate 30 mM): B+ | Appearance after shaking (Sodium L-glutamate 60 mM): A | Appearance after standing (Sodium L-glutamate 60 mM): A | Defoaming time (Sodium L-glutamate 60 mM): A (In 20 minutes) | Foaming property (Sodium L-glutamate 60 mM): B+ | General judgment (Sodium L-glutamate 60 mM): A | Appearance after shaking (Sodium chloride 25 mM): D | Appearance after standing (Sodium chloride 25 mM): D | Foaming property (Sodium chloride 25 mM): B | General judgment (Sodium chloride 25 mM): D | Appearance after shaking (Sodium chloride 50 mM): B | Appearance after standing (Sodium chloride 50 mM): B | Foaming property (Sodium chloride 50 mM): A | General judgment (Sodium chloride 50 mM): C | Appearance after shaking (Sodium chloride 75 mM): A | Appearance after standing (Sodium chloride 75 mM): A | Defoaming time (Sodium chloride 75 mM): A (In 20 minutes) | Foaming property (Sodium chloride 75 mM): B+ | General judgment (Sodium chloride 75 mM): A | Appearance after shaking (Sodium chloride 100 mM): A | Appearance after standing (Sodium chloride 100 mM): A | Defoaming time (Sodium chloride 100 mM): A (In 20 minutes) | Foaming property (Sodium chloride 100 mM): B | General judgment (Sodium chloride 100 mM): A
SMILES: Cc1cc(OC[C@@H](O)CN2CCN(c3ccc(Cc4ccc(F)cc4)cc3)CC2)c(C)c(C)c1N [SUN N8075, (2S)-1-(4-amino-2,3,5-trimethylphenoxy)-3-{4-[4-(4-fluorobenzyl)phenyl]-1-piperazinyl}-2-propanol dimethane sulfonate]
Appearance after shaking/Appearance after standing [1]: Large amount of insoluble matters in wall face and appearance in Control | Defoaming time (Control: 5 mg/mL SUN N8075 aqueous solution, no test substance, standing): Not defoamed after standing for 1 week in Control
